Values after ≈ are worked out from the molar mass of the structure shown.
Legend:
[1] = Toxicity against Artemia salina; type: organism-based; details: in vivo, read-out: ED50 (the source's name)
[2] = tested on: MCF7; test: Cytotoxicity against human MCF7 cells after 7 days by MTT assay; type: functional; details: MCF7, 168 h, read-out: ED50 (the source's name)
[3] = tested on: MIA PaCa-2; test: Cytotoxicity against human MIAPaCa2 cells after 7 days by MTT assay; type: functional; details: MIA PaCa-2, 168 h, read-out: ED50 (the source's name)
[4] = tested on: PC-3; test: Cytotoxicity against human PC3 cells after 7 days by MTT assay; type: functional; details: PC-3, 168 h, read-out: ED50 (the source's name)
[5] = tested on: A498; test: Cytotoxicity against human A498 cells after 7 days by MTT assay; type: functional; details: A498, 168 h, read-out: ED50 (the source's name)
[6] = tested on: HT-29; test: Cytotoxicity against human HT-29 cells after 7 days by MTT assay; type: functional; details: HT-29, 168 h, read-out: ED50 (the source's name)
[7] = tested on: A549; test: Cytotoxicity against human A549 cells after 7 days by MTT assay; type: functional; details: A549, 168 h, read-out: ED50 (the source's name)

SMILES: CCCCCCCCCCCC[C@@H](O)[C@H]1CC[C@H]([C@H](O)CCC[C@@H](O)[C@@H](O)CCCCC[C@@H](O)CC2=C[C@H](C)OC2=O)O1 [ANNOMURICIN E]
- LC50 [1]: 11.8 µg/mL (≈ 19.3 µM)
- EC50 [2]: 1.45 µg/mL (≈ 2.37 µM)
- EC50 [3]: 0.0242 µg/mL (≈ 0.0395 µM)
- EC50 [4]: 0.146 µg/mL (≈ 0.238 µM)
- EC50 [5]: 1.41 µg/mL (≈ 2.3 µM)
- EC50 [6]: 0.0668 µg/mL (≈ 0.109 µM)
- EC50 [7]: 0.112 µg/mL (≈ 0.183 µM)

SMILES: CCCCCCCCCCCC[C@@H](O)[C@H]1CC[C@H]([C@H](O)CCC(O)CCCC(O)CCC[C@@H](O)CC2=C[C@H](C)OC2=O)O1 (stereo not given in full) [MURICAPENTOCIN]
- LC50 [1]: 1.86 µg/mL (≈ 3.03 µM)
- EC50 [2]: 1.9 µg/mL (≈ 3.1 µM)
- EC50 [3]: 0.0503 µg/mL (≈ 0.0821 µM)
- EC50 [4]: 0.45 µg/mL (≈ 0.734 µM)
- EC50 [5]: 1.72 µg/mL (≈ 2.81 µM)
- EC50 [6]: 0.071 µg/mL (≈ 0.116 µM)
- EC50 [7]: 0.193 µg/mL (≈ 0.315 µM)

SMILES: COc1cccc2c1C(=O)c1c(O)c3c(c(O)c1C2=O)C[C@@](O)(C(=O)CO)C[C@@H]3O[C@H]1C[C@H](N)[C@H](O)[C@H](C)O1 [DOXORUBICIN]
- EC50 [2]: 0.124 µg/mL (≈ 0.228 µM)
- EC50 [3]: 0.00456 µg/mL (≈ 0.00839 µM)
- EC50 [4]: 0.0355 µg/mL (≈ 0.0653 µM)
- EC50 [5]: 0.0158 µg/mL (≈ 0.0291 µM)
- EC50 [6]: 0.0381 µg/mL (≈ 0.0701 µM)
- EC50 [7]: 0.00294 µg/mL (≈ 0.00541 µM)
